From patent US10456376B2, “Use of carbamate compound in order to preventatively treat headaches” (SK BIOPHARMACEUTICALS CO., LTD., priority 2016, dated 2019)

Tested on: cortical spreading depression (CSD) in rats
Assay: KCl-induced cortical spreading depression (CSD) animal model of migraine; cerebral blood flow and DC potential measurement
Assay type: in vivo, Wistar rats
Conditions: for number of DC-potential events: KCl-induced CSD (FIG. 3)
Procedure: All animal experiments were conducted in accordance with the National Institutes of Health (NIH) guidelines for the protection and use of laboratory animals and were approved by the State National Animal Experiment Board of Finland. A total of 48 adult male Wistar rats weighing 250 to 350 g were purchased from Charles River (Germany) and used in this experiment. The animals were raised at ambient temperature (22±1° C.) under an environment in which food and water could be consumed arbitrarily and lighting was controlled (illuminated from 7 am to 8 pm). The animals were divided into the following four groups: • Twelve rats as a negative control group which were intraperitoneally administered 30% PEG400 (5 ml/kg) only, the vehicle of administration, once a day for three weeks • Twelve rats which were intraperitoneally administered the test compound at a dose of 10 mg/kg once a day for three weeks • Twelve rats which were intraperitoneally administered the test compound at a dose of 30 mg/kg once a day for three weeks • Twelve rats as a positive control which were intraperitoneally administered Topiramate at a dose of 80 mg/kg once a day for three weeks
On the last day of the three weeks of administration of the compound and the vehicle (30% PEG 400), the rats were anesthetized with 5% isoflurane (70% N2O and 30% O2 included, dose rate of 300 ml/min) and then were fixed to a stereotactic frame to perform the following surgery. During surgery, the concentration of anesthetic was reduced to 1 to 1.5%, and the rectal temperature was maintained at 37.0±1.0° C. using the homeothermic blanket system.
The skin of the rat head was incised and tilted to both sides, and the right hemisphere of the open skull was drilled using a drill to make three holes, the positions of which are as follows and are indicated by “mm” distance from the bregma; (1) in the occipital cortex, 4.5 at the rear and 2.0 at the lateral; (2) in the parietal cortex, 0.5 at the rear and 2.0 at the lateral; (3) in the frontal cortex, 2 at the front and 2 at the lateral. A laser-Doppler flow probe (Oxyflow, Oxford Optronics, UK) for monitoring the cerebral blood flow (CBF) and an invasive Ag/AgCl electrode for measuring the direct current (DC) potential change were placed on the uninjured dura of the holes drilled in the parietal and frontal cortex and within the cortex, respectively.
The laser-Doppler flow probes were placed in areas with no large pial and dural blood vessels to minimize the interference of the large vessels to the signal. For the measurement of the DC potential difference, a reference electrode was fixed to the neck. The dura on the occipital cortex was carefully removed and care was taken to minimize bleeding. After surgery, the cortical area was restored by washing with saline for 15 minutes. Sphere-shaped (2 mm diameter) cotton wool was wetted with 1 M KCl solution and placed on the pia, and 5 μl of KCl solution was added thereto every 15 minutes to prevent drying. The occurrence of KCl-induced cortical spreading depression (CSD) was measured for 2 hours.
Cerebral blood flow (CBF) and DC potential were continuously monitored starting 5 minutes before KCl treatment. The last drug administration took place 30 minutes before the KCl solution treatment. The parameters analyzed were (1) the number of events of DC potential, the duration of the event, the magnitude of amplitude, and (2) the number of events of cerebral blood flow change and the size of the magnitude of change. […] Statistical analysis was performed using unpaired t-test on StatsDirect statistical software.

SMILES	number of events of increased cerebral blood flow (CBF) (80 mg/kg i.p. once a day for three weeks, positive control, KCl-induced CSD (FIG. 1))	number of DC-potential events (80 mg/kg i.p. once a day for three weeks, positive control)	number of DC-potential events (30 mg/kg i.p. once a day for three weeks, compared to vehicle treated group)	number of events of increased cerebral blood flow (CBF) (30 mg/kg i.p. once a day for three weeks, compared to vehicle treated group, KCl-induced CSD measured for 2 hours (FIG. 1))	degree of cerebral blood flow increase (i.p. once a day for three weeks, compared to vehicle, KCl-induced CSD (FIG. 2))	magnitude of amplitude of the DC-potential event (i.p. once a day for three weeks, compared to vehicle, KCl-induced CSD (FIG. 4))	duration of the DC-potential event (i.p. once a day for three weeks, compared to vehicle, KCl-induced CSD (FIG. 5))
CC1(C)O[C@@H]2[C@@H](CO[C@@]3(COS(N)(=O)=O)OC(C)(C)O[C@@H]23)O1 [Topiramate, reference compound]	reduction effect	effect shown					
NC(=O)O[C@@H](Cn1ncnn1)c1ccccc1Cl [test compound]			significantly reduced	significantly reduced	no significant effect	no significant effect	no significant effect
